From patent publication US8063088B2 (Hoffmann-La Roche Inc., priority 2008, dated 2011)

Legend:
human LXR alpha = target: T1, human LXR alpha (Homo sapiens, UniProt Q13133); test: Radioligand binding assay (SPA), LXR alpha LBD; conditions: radioligand displacement, LXRα-LBD on SPA beads; read-out: LXRalpha Binding IC50
T1 construct: human LXR alpha (aa 164 to 447); unspecified tag ('tagged versions'); made in house; host or cells: E. coli BL21 (pLysS)
T1 sequence (Q13133 164-447): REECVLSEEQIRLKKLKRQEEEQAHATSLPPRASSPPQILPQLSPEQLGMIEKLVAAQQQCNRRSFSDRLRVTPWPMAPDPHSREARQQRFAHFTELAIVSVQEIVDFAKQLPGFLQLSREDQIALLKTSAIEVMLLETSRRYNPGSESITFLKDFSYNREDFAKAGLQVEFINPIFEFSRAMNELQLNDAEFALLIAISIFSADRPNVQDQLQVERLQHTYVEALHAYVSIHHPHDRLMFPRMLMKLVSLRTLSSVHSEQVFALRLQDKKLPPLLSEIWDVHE
Protocol: (§1) The following tests were carried out in order to determine the activity of the compounds of the present invention. Background information on the performed assays can be found in: Nichols J S et al. “Development of a scintillation proximity assay for peroxisome proliferator-activated receptor gamma ligand binding domain”, Anal Biochem. 1998, 257: 112-119.
(§2) Mammalian expression vectors were constructed to express full-length human LXR alpha and LXR beta. Bacterial expression vectors were constructed to produce tagged versions of the ligand binding domains (LBD) of human LXR alpha (aa 164 to 447) and human LXR beta (aa 155 to 460). To accomplish this, the portions of the sequences encoding the LBDs were amplified from the full-length clones by PCR and then subcloned into the plasmid vectors. Final clones were verified by DNA sequence analysis (Willy et al., Genes Dev. 1995, 9:1033-45; Song et al., Proc Natl Acad Sci USA. 1994, 91:10809-13).
(§3) Induction, expression, and purification of LBD proteins were performed in E. coli strain BL21 (pLysS) cells by standard methods (Ref: Current Protocols in Molecular Biology, Wiley Press, edited by Ausubel et al).
(§4) Radioligand Binding Assay
(§5) LXR alpha and LXR beta receptor binding were assayed in buffer consisting of 50 mM HEPES, pH 7.4, 10 mM NaCl, 5 mM MgCl2. For each 96-well reaction, 500 ng of LXRα-LBD or 700 ng of LXR beta-LBD proteins were bound to 80 μg or 40 μg SPA beads respectively, in a final volume of 50 μl by shaking. The resulting slurry was incubated for 1 h at RT and centrifuged for 2 min at 1300×g. The supernatant containing unbound protein was removed, and the semi-dry pellet containing the receptor-coated beads was re-suspended in 50 μl of buffer. Radioligand (eg. 100,000 dpm of (N-(2,2,2-trifluoroethyl)-N-[4-(2,2,2-trifluoro-1-hydroxy-1-trifluoromethylethyl)-phenyl]-benzenesulfonamide)) was added, and the reaction incubated at RT for 1 h in the presence of test compounds, and then scintillation proximity counting was performed. All binding assays were performed in 96-well plates and the amount of bound ligand was measured on a Packard TopCount using OptiPlates (Packard). Dose response curves were measured within a range of concentration from 10^−10 M to 10^−4 M.

human LXR beta = target: T2, human LXR beta (Homo sapiens, UniProt P55055); test: Radioligand binding assay (SPA), LXR beta LBD; conditions: radioligand displacement, LXR beta-LBD on SPA beads; read-out: LXRbeta Binding IC50
T2 construct: human LXR beta (aa 155 to 460); unspecified tag ('tagged versions'); made in house; host or cells: E. coli BL21 (pLysS)
T2 sequence (P55055 155-460): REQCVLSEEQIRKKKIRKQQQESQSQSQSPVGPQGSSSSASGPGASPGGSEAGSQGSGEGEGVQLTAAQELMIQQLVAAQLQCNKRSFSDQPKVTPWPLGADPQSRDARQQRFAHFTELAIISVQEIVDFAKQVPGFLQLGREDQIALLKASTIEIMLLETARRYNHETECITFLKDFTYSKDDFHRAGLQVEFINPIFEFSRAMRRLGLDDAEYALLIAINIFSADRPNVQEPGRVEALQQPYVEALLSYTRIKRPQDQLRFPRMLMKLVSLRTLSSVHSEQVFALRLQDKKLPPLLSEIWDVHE
Protocol: as §1, §2, §3, §4, §5

Compound `CC(C)N1C(=O)N(S(=O)(=O)c2ccccc2)CC1c1cccc(-c2cccc(S(=O)(=O)NC(C)(C)C)c2)c1` (stereo not drawn) [Example 29, 3′-(1-Benzenesulfonyl-3-isopropyl-2-oxo-imidazolidin-4-yl)-biphenyl-3-sulfonic acid tert-butylamide] has an IC50 (human LXR alpha) of 2250 nM and an IC50 (human LXR beta) of 410 nM.
Work on `CC(C)N1C(=O)N(S(=O)(=O)c2ccccc2)CC1c1cccc(-c2cc(C#N)ccc2Cl)c1` (stereo not drawn) [Example 28, 3′-(1-Benzenesulfonyl-3-isopropyl-2-oxo-imidazolidin-4-yl)-6-chloro-biphenyl-3-carbonitrile] yielded an IC50 (human LXR alpha) of 2960 nM and an IC50 (human LXR beta) of 505 nM.
In the case of `CS(=O)(=O)Nc1cccc(-c2ccc(C3CN(S(=O)(=O)c4ccccc4)C(=O)N3c3ccccc3)cc2)c1` (stereo not drawn) [Example 9, N-[4′-(1-Benzenesulfonyl-2-oxo-3-phenyl-imidazolidin-4-yl)-biphenyl-3-yl]-methanesulfonamide], the IC50 (human LXR alpha) is reported as 425 nM and the IC50 (human LXR beta) is reported as 360 nM.
`CC(C)N1C(=O)N(S(=O)(=O)c2ccccc2F)CC1c1cccc(-c2cccc(S(C)(=O)=O)c2)c1` (stereo not drawn) [Example 14, 1-(2-Fluoro-benzenesulfonyl)-3-isopropyl-4-(3′-methanesulfonyl-biphenyl-3-yl)-imidazolidin-2-one] gave an IC50 (human LXR alpha) of 10 nM and an IC50 (human LXR beta) of 6 nM.
`O=C(O)c1cccc(-c2ccc(C3CN(S(=O)(=O)c4ccccc4)C(=O)N3c3ccccc3)cc2)c1` (stereo not drawn) [Example 2, 4′-(1-Benzenesulfonyl-2-oxo-3-phenyl-imidazolidin-4-yl)-biphenyl-3-carboxylic acid] gave an IC50 (human LXR alpha) of 7970 nM and an IC50 (human LXR beta) of 8050 nM.
With `CS(=O)(=O)c1cccc(-c2cccc(C3CN(S(=O)(=O)c4ccccc4)CCN3c3ccccc3)c2)c1` (stereo not drawn) [Example 34, 4-Benzenesulfonyl-2-(3′-methanesulfonyl-biphenyl-3-yl)-1-phenyl-piperazine] the IC50 (human LXR alpha) was 56 nM and the IC50 (human LXR beta) was 2 nM.
`CS(=O)(=O)c1cc(-c2ccc(C3CN(S(=O)(=O)c4ccccc4)C(=O)N3c3ccccc3)cc2)ccc1CO` (stereo not drawn) [Example 19, 1-Benzenesulfonyl-4-(4′-hydroxymethyl-3′-methanesulfonyl-biphenyl-4-yl)-3-phenyl-imidazolidin-2-one] showed an IC50 (human LXR alpha) of 45 nM and an IC50 (human LXR beta) of 18 nM.
`Cc1ccccc1N1CCN(S(=O)(=O)c2ccccc2)CC1c1cccc(-c2cccc(S(C)(=O)=O)c2)c1` (stereo not drawn) [Example 50, 4-Benzenesulfonyl-2-(3′-methanesulfonyl-biphenyl-3-yl)-1-o-tolyl-piperazine] gave an IC50 (human LXR alpha) of 12300 nM and an IC50 (human LXR beta) of 165 nM.
`Cc1ccc(C)c(-c2cccc(C3CN(C(=O)OC(C)(C)C)CCC3c3ccccc3)c2)c1` (stereo not drawn) [Example 40, trans-3-(2′,5′-Dimethyl-biphenyl-3-yl)-4-phenyl-piperidine-1-carboxylic add tert-butyl ester] was tested, and the IC50 (human LXR alpha) was 44100 nM and the IC50 (human LXR beta) was 19300 nM.
`Cc1ccc(C)c(-c2cccc(C3CN(S(=O)(=O)c4ccccc4)C(=O)N3C(C)C)c2)c1` (stereo not drawn) [Example 31, 1-Benzenesulfonyl-4-(2′,5′-dimethyl-biphenyl-3-yl)-3-isopropyl-imidazolidin-2-one] showed an IC50 (human LXR alpha) of 815 nM and an IC50 (human LXR beta) of 165 nM.
`CC(C)(C)OC(=O)N1CC[C@@H](c2ccccc2)[C@H](c2cccc(-c3cncc(S(C)(=O)=O)c3)c2)C1` (relative stereo) [Example 43, trans-3-[3-(5-Methanesulfonyl-pyridin-3-yl)-phenyl]-4-phenyl-piperidine-1-carboxylic acid tert-butyl ester] was tested, and the IC50 (human LXR alpha) was 3980 nM and the IC50 (human LXR beta) was 755 nM.
`CS(=O)(=O)Nc1cccc(-c2cccc(C3CN(S(=O)(=O)c4ccccc4)C(=O)N3c3ccccc3)c2)c1` (stereo not drawn) [Example 8, N-[3′-(1-Benzenesulfonyl-2-oxo-3-phenyl-imidazolidin-4-yl)-biphenyl-3-yl]-methanesulfonamide] showed an IC50 (human LXR alpha) of 335 nM and an IC50 (human LXR beta) of 74.5 nM.
Work on `CS(=O)(=O)c1cc(-c2cccc(C3CN(S(=O)(=O)c4ccccc4)C(=O)N3c3ccccc3)c2)ccc1CO` (stereo not drawn) [Example 16, 1-Benzenesulfonyl-4-(4′-hydroxymethyl-3′-methanesulfonyl-biphenyl-3-yl)-3-phenyl-imidazolidin-2-one] yielded an IC50 (human LXR alpha) of 475 nM and an IC50 (human LXR beta) of 29 nM.
`Cc1ccccc1N1CCN(C(=O)OC(C)(C)C)CC1c1cccc(-c2cccc(S(C)(=O)=O)c2)c1` (stereo not drawn) [Example 48, 3-(3′-Methanesulfonyl-biphenyl-3-yl)-4-o-tolyl-piperazine-1-carboxylic acid tert-butyl ester] showed an IC50 (human LXR alpha) of 5530 nM and an IC50 (human LXR beta) of 355 nM.
`NCc1cccc(-c2cccc([C@@H]3CN(S(=O)(=O)c4ccccc4)CC[C@H]3c3ccccc3)c2)c1` (relative stereo) [Example 37] was tested, and the IC50 (human LXR alpha) was 2540 nM and the IC50 (human LXR beta) was 2090 nM.
Compound `Cc1ccc(C)c(-c2ccc(C3CN(S(=O)(=O)c4ccccc4)C(=O)N3c3ccccc3)cc2)c1` (stereo not drawn) [Example 3, 1-Benzenesulfonyl-4-(2′,5′-dimethyl-biphenyl-4-yl)-3-phenyl-imidazolidin-2-one] has an IC50 (human LXR alpha) of 10200 nM and an IC50 (human LXR beta) of 5250 nM.
`CC(C)N1C(=O)N(S(=O)(=O)c2ccccc2)CC1c1cccc(-c2cc(F)ccc2Cl)c1` (stereo not drawn) [Example 25, 1-Benzenesulfonyl-4-(2′-coro-5′-fluoro-biphenyl-3-yl)-3-isopropyl-imidazolidin-2-one] gave an IC50 (human LXR alpha) of 2030 nM and an IC50 (human LXR beta) of 265 nM.
In the case of `CS(=O)(=O)c1cccc(-c2cccc([C@@H]3CN(S(=O)(=O)c4ccccc4)CC[C@H]3c3ccccc3)c2)c1` (racemic) [Example 36, trans-1-Benzenesulfonyl-3-(3′-methanesulfonyl-biphenyl-3-yl)-4-phenyl-piperidine], the IC50 (human LXR alpha) is reported as 70 nM and the IC50 (human LXR beta) is reported as 25 nM.
`CC(C)N1C(=O)N(S(C)(=O)=O)CC1c1cccc(-c2cccc(S(C)(=O)=O)c2)c1` (stereo not drawn) [Example 17, 3-Isopropyl-1-methanesulfonyl-4-(3′-methanesulfonyl-biphenyl-3-yl)-imidazolidin-2-one] showed an IC50 (human LXR alpha) of 52800 nM and an IC50 (human LXR beta) of 2730 nM.
Work on `CS(=O)(=O)c1cccc(-c2ccc(C3CN(S(=O)(=O)c4ccccc4)C(=O)N3c3ccccc3)cc2)c1` (stereo not drawn) [Example 4, 1-Benzenesulfonyl-4-(3′-methanesulfonyl-biphenyl-4-yl)-3-phenyl-imidazolidin-2-one] yielded an IC50 (human LXR alpha) of 1680 nM and an IC50 (human LXR beta) of 280 nM.
With `CC(C)N1C(=O)N(S(=O)(=O)c2ccccc2)CC1c1cccc(-c2cccc([N+](=O)[O-])c2)c1` (stereo not drawn) [Example 21, 1-Benzenesulfonyl-3-isopropyl-4-(3′-nitro-biphenyl-3-yl)-imidazolidin-2-one] the IC50 (human LXR alpha) was 2910 nM and the IC50 (human LXR beta) was 155 nM.
`O=C(O)CCc1ccc(-c2cccc(C3CN(S(=O)(=O)c4ccccc4)C(=O)N3c3ccccc3)c2)cc1` (stereo not drawn) [Example 10, 3-[3′-(1-Benzenesulfonyl-2-oxo-3-phenyl-imidazolidin-4-yl)-biphenyl-4-yl]-propionic acid] gave an IC50 (human LXR alpha) of 3350 nM and an IC50 (human LXR beta) of 2690 nM.
`CS(=O)(=O)c1cccc(-c2cccc([C@@H]3CN(S(=O)(=O)c4ccccc4)CC[C@@H]3c3ccccc3)c2)c1` (relative stereo) [Example 39, cis-1-Benzenesulfonyl-3-(3′-methanesulfonyl-biphenyl-3-yl)-4-phenyl-piperidine] gave an IC50 (human LXR alpha) of 3030 nM and an IC50 (human LXR beta) of 2750 nM.
Work on `Cc1ccc(Cl)cc1-c1cccc(C2CN(S(=O)(=O)c3ccccc3)C(=O)N2C(C)C)c1` (stereo not drawn) [Example 26, 1-Benzenesulfonyl-4-(5′-chloro-2′-methyl-biphenyl-3-yl)-3-isopropyl-imidazolidin-2-one] yielded an IC50 (human LXR alpha) of 1990 nM and an IC50 (human LXR beta) of 315 nM.
